Measurements taken from ChEMBL document CHEMBL1201862, “PubChem BioAssay data set” (2004).
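A five-concentration, 48-hour dose response in 96-well plates underlies each endpoint, interpolated linearly between surrounding concentrations. Abbreviation: GI50, concentration required for 50% inhibition of growth.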 Activity calls are given as the source filed them. No stated cut-off is given here; in the data, active = GI50 up to about 1.1 µM and inactive = higher.

Assays:
Test in all cases: NCI-60 cell line screen, 48 h
HOP-62 = test system: HOP-62
MDA-MB-435 = test system: MDA-MB-435
OVCAR-5 = test system: OVCAR-5
SF-295 = test system: SF-295
MDA-MB-231 = test system: MDA-MB-231
OVCAR-3 = test system: OVCAR-3
UO-31 = test system: UO-31
SK-MEL-2 = test system: SK-MEL-2
T47D = test system: T47D
Hs-578T = test system: Hs-578T
786-0 = test system: 786-0
PC-3 = test system: PC-3
HCC 2998 = test system: HCC 2998
DU-145 = test system: DU-145
HCT-15 = test system: HCT-15
LOX IMVI = test system: LOX IMVI
MDA-N = test system: MDA-N
BT-549 = test system: BT-549
UACC-62 = test system: UACC-62

SMILES	GI50 (HOP-62)	GI50 (MDA-MB-435)	GI50 (OVCAR-5)	GI50 (SF-295)	GI50 (MDA-MB-231)	GI50 (OVCAR-3)	GI50 (UO-31)	GI50 (SK-MEL-2)	GI50 (T47D)	GI50 (Hs-578T)	GI50 (786-0)	GI50 (PC-3)	GI50 (HCC 2998)	GI50 (DU-145)	GI50 (HCT-15)	GI50 (LOX IMVI)	GI50 (MDA-N)	GI50 (BT-549)	GI50 (UACC-62)
O=C1OCC=C1COC1OC(CO)C(O)C(O)C1O (configuration not stated)	> 100 µM (inactive)	> 100 µM (inactive)	> 100 µM (inactive)	> 100 µM (inactive)	> 100 µM (inactive)	> 100 µM (inactive)	> 100 µM (inactive)	> 100 µM (inactive)	> 100 µM (inactive)	> 100 µM (inactive)	> 100 µM (inactive)	> 100 µM (inactive)	> 100 µM (inactive)	> 100 µM (inactive)	> 100 µM	> 100 µM (inactive)	> 100 µM (inactive)	–	–
Cc1cc(S(=O)(=O)NC2=NCc3nc4ccccc4n32)c(S)cc1Cl	–	28.8 µM (inactive)	20.7 µM (inactive)	19.9 µM (inactive)	23.5 µM (inactive)	19.9 µM (inactive)	26.4 µM (inactive)	13.5 µM (inactive)	21.9 µM (inactive)	21.4 µM (inactive)	21 µM (inactive)	22.2 µM (inactive)	17.2 µM (inactive)	31.2 µM (inactive)	24.7 µM	18.4 µM (inactive)	26 µM (inactive)	23 µM (inactive)	17.1 µM (inactive)
CC(C)N(C)C(=O)C12C3C4C1C1C2C3C41C#N (configuration not stated)	> 100 µM (inactive)	> 100 µM (inactive)	> 100 µM (inactive)	> 100 µM (inactive)	> 100 µM (inactive)	> 100 µM (inactive)	> 100 µM (inactive)	> 100 µM (inactive)	> 100 µM (inactive)	> 100 µM (inactive)	> 100 µM (inactive)	> 100 µM (inactive)	> 100 µM (inactive)	> 100 µM (inactive)	> 100 µM	> 100 µM (inactive)	> 100 µM (inactive)	> 100 µM (inactive)	> 100 µM (inactive)
COCCN(C(=O)c1ccccc1)C1CCC(=O)c2[nH]c3ccccc3c21 (configuration not stated)	5.22 µM (inactive)	6.87 µM (inactive)	16.9 µM (inactive)	> 41 µM (inactive)	4.23 µM (inactive)	12.5 µM (inactive)	9.71 µM (inactive)	5.38 µM (inactive)	16.2 µM (inactive)	15.5 µM (inactive)	3.4 µM (inactive)	5.25 µM (inactive)	17.1 µM (inactive)	14.7 µM (inactive)	16.4 µM	> 21.1 µM (inactive)	–	2.7 µM (inactive)	17.8 µM (inactive)
CN(C)CCCn1c(-c2ccc(Br)cc2)cs/c1=N\c1ccccc1	12.9 µM (inactive)	18.7 µM (inactive)	16.5 µM (inactive)	11.2 µM (inactive)	15.1 µM (inactive)	10.6 µM (inactive)	10.4 µM (inactive)	15.7 µM (inactive)	–	–	–	11.2 µM (inactive)	5.38 µM (inactive)	–	21.1 µM	–	13.8 µM (inactive)	15.4 µM (inactive)	13.7 µM (inactive)
N#C[C@H](c1ccccn1)c1nc2ccccc2nc1Cl	> 100 µM (inactive)	> 100 µM (inactive)	> 100 µM (inactive)	> 100 µM (inactive)	> 100 µM (inactive)	> 100 µM (inactive)	> 100 µM (inactive)	> 100 µM (inactive)	> 100 µM (inactive)	> 100 µM (inactive)	> 100 µM (inactive)	> 100 µM (inactive)	> 100 µM (inactive)	–	> 100 µM	–	> 100 µM (inactive)	> 100 µM (inactive)	> 100 µM (inactive)
CCOC(=O)c1csc(NC(=O)CCN2CCN(C)CC2)n1	> 100 µM (inactive)	> 100 µM (inactive)	> 100 µM (inactive)	> 100 µM (inactive)	> 100 µM (inactive)	> 100 µM (inactive)	> 100 µM (inactive)	> 100 µM (inactive)	> 100 µM (inactive)	64.6 µM (inactive)	–	> 100 µM (inactive)	> 100 µM (inactive)	> 100 µM (inactive)	> 100 µM	> 100 µM (inactive)	> 100 µM (inactive)	–	> 100 µM (inactive)
COC(=O)c1ccc(NCc2cc(OC)ccc2OC)cc1	–	21.8 µM (inactive)	> 100 µM (inactive)	–	46.7 µM (inactive)	59.2 µM (inactive)	45.6 µM (inactive)	54.6 µM (inactive)	–	92 µM (inactive)	> 100 µM (inactive)	39 µM (inactive)	67.6 µM (inactive)	> 100 µM (inactive)	30.6 µM	24.3 µM (inactive)	20.8 µM (inactive)	53.8 µM (inactive)	44.8 µM (inactive)
COC(=O)C(NC(=O)OC(C)(C)C)P(=O)(OC)OC (configuration not stated)	> 100 µM (inactive)	> 100 µM (inactive)	> 100 µM (inactive)	> 100 µM (inactive)	> 100 µM (inactive)	> 100 µM (inactive)	> 100 µM (inactive)	> 100 µM (inactive)	> 100 µM (inactive)	> 100 µM (inactive)	> 100 µM (inactive)	> 100 µM (inactive)	–	> 100 µM (inactive)	> 100 µM	> 100 µM (inactive)	> 100 µM (inactive)	> 100 µM (inactive)	> 100 µM (inactive)
CCOC(=O)c1csc(NC(=O)CN2CCCC2)n1	> 100 µM (inactive)	> 100 µM (inactive)	> 100 µM (inactive)	> 100 µM (inactive)	> 100 µM (inactive)	> 100 µM (inactive)	> 100 µM (inactive)	> 100 µM (inactive)	> 100 µM (inactive)	> 100 µM (inactive)	–	> 100 µM (inactive)	> 100 µM (inactive)	> 100 µM (inactive)	> 100 µM	> 100 µM (inactive)	> 100 µM (inactive)	–	> 100 µM (inactive)
O=C1CC2(CCC(O)(c3ccc4ccccc4c3)C(C(=O)c3ccc4ccccc4c3)C2)C(=O)c2ccccc2N1 (configuration not stated)	> 100 µM (inactive)	> 100 µM (inactive)	> 100 µM (inactive)	> 100 µM (inactive)	> 100 µM (inactive)	> 100 µM (inactive)	> 100 µM (inactive)	> 100 µM (inactive)	2.13 µM (inactive)	> 100 µM (inactive)	–	4.27 µM (inactive)	> 100 µM (inactive)	> 100 µM (inactive)	> 10 µM	> 100 µM (inactive)	–	> 100 µM (inactive)	> 100 µM (inactive)
N#Cc1c(-c2ccccc2)c(CN2CCCCC2)c(=O)n2c1[nH]c1ccccc12	20.7 µM (inactive)	41.4 µM (inactive)	34.9 µM (inactive)	36.8 µM (inactive)	43.5 µM (inactive)	20.4 µM (inactive)	26.7 µM (inactive)	37.3 µM (inactive)	40.9 µM (inactive)	–	27.9 µM (inactive)	34.9 µM (inactive)	53.8 µM (inactive)	–	32.6 µM	20.7 µM (inactive)	27.5 µM (inactive)	35 µM (inactive)	–
O=C1c2cc3c(cc2CC12Cc1ccc4c(c1C2=O)CCC4)CCCC3 (configuration not stated)	> 100 µM (inactive)	76.4 µM (inactive)	> 100 µM (inactive)	> 100 µM (inactive)	> 100 µM (inactive)	> 100 µM (inactive)	> 100 µM (inactive)	> 100 µM (inactive)	> 100 µM (inactive)	> 100 µM (inactive)	> 100 µM (inactive)	> 100 µM (inactive)	> 100 µM (inactive)	> 100 µM (inactive)	> 100 µM	> 100 µM (inactive)	> 100 µM (inactive)	–	–
CN(C)c1cccc2c1C(=O)C=CC21CCc2ccc(N(C)C)c3c(N(C)C)ccc1c23 (configuration not stated)	14.5 µM (inactive)	10.3 µM (inactive)	19.1 µM (inactive)	18.8 µM (inactive)	13.6 µM (inactive)	8.34 µM (inactive)	11.9 µM (inactive)	–	66.4 µM (inactive)	17.4 µM (inactive)	12.7 µM (inactive)	11.6 µM (inactive)	–	5.26 µM (inactive)	–	15.1 µM (inactive)	11.2 µM (inactive)	–	12.9 µM (inactive)
Cc1ccc(S(=O)(=O)NCCCSCCN)cc1	–	> 100 µM (inactive)	–	> 100 µM (inactive)	> 100 µM (inactive)	> 100 µM (inactive)	> 100 µM (inactive)	–	> 100 µM (inactive)	> 100 µM (inactive)	–	> 100 µM (inactive)	> 100 µM (inactive)	> 100 µM (inactive)	> 100 µM	< 0.01 µM (active)	> 100 µM (inactive)	–	–
C[N+](C)(C)/C=N\c1cccc2c1CCCC2	> 100 µM (inactive)	90.8 µM (inactive)	> 100 µM (inactive)	> 100 µM (inactive)	> 100 µM (inactive)	> 100 µM (inactive)	> 100 µM (inactive)	> 100 µM (inactive)	69.3 µM (inactive)	> 100 µM (inactive)	> 100 µM (inactive)	39.8 µM (inactive)	–	> 100 µM (inactive)	> 100 µM	55.3 µM (inactive)	> 100 µM (inactive)	57.1 µM (inactive)	> 100 µM (inactive)
c1ccc2c(c1)c1c(n2CCOCCCN2CCCCC2)CCCC1	16.3 µM (inactive)	18.1 µM (inactive)	13.1 µM (inactive)	–	20.5 µM (inactive)	13.2 µM (inactive)	12.6 µM (inactive)	18.7 µM (inactive)	17.2 µM (inactive)	20.1 µM (inactive)	–	13.1 µM (inactive)	18 µM (inactive)	44.7 µM (inactive)	14.2 µM	–	21.8 µM (inactive)	15.5 µM (inactive)	–
